Measurements: patent publication US20240270762A1, “PENICILLIN-BINDING PROTEIN INHIBITORS” (priority 2021, published 2024)
pIC50: −log10 of the molar value. Converted amounts (≈) assume the structure as drawn.

Key:
[1] = biological target: T1, PBP3 from Pseudomonas aeruginosa (PAO1) (Pseudomonas aeruginosa, UniProt G3XD46); assay: Bocillin-FL fluorescence polarization competition binding, P. aeruginosa PBP3; details: Binding affinity to P. aeruginosa PBP3; fluorescence polarization competition binding assay using Bocillin-FL; read-out: P. aeruginosa PBP3 Potency
T1 construct: made in house
In short: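 Purified PBPs pre-incubated with inhibitor (E. coli PBP3 1.5 μM, 30 min; P. aeruginosa PBP3 0.75 μM, A. baumannii PBP1a 1 μM and PBP3 0.2 μM, 15 min), then Bocillin-FL 0.1 μM (0.05 μM for PBP1a) added; FP read up to 60 min. EC50 = concentration halving bound Bocillin-FL.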

[2] = tested on: E. coli AG100; assay: microbe, parasite or virus in culture; assay type: cell-based; details: Escherichia coli, AG100, read-out: MIC E. coli AG100
[3] = tested on: E. coli 901C; assay: microbe, parasite or virus in culture; assay type: cell-based; details: Escherichia coli, read-out: MIC E. coli 901C
[4] = tested on: E. coli AG100A; assay: Broth microdilution MIC in CAMHB; assay type: cell-based; details: Escherichia coli, read-out: MIC E. coli AG100A
[5] = tested on: K. pneumoniae 848844; assay: microbe, parasite or virus in culture; assay type: cell-based; details: Klebsiella pneumoniae, 848844, read-out: MIC K. pneumoniae 848844
[6] = tested on: K. pneumoniae SI-117; assay: microbe, parasite or virus in culture; assay type: cell-based; details: Klebsiella pneumoniae, SI117, read-out: MIC K. pneumoniae SI-117
[7] = tested on: A. baumannii ATCC 19606; assay: microbe, parasite or virus in culture; assay type: cell-based; details: Acinetobacter baumannii, ATCC19606, read-out: MIC, A. baumannii ATCC 19606
[8] = tested on: P. aeruginosa ATCC 35151; assay: microbe, parasite or virus in culture; assay type: cell-based; details: Pseudomonas aeruginosa, ATCC35151, read-out: MIC P. aeruginosa ATCC 35151
[9] = tested on: P. aeruginosa (ΔmexAB-oprM); assay: Broth microdilution MIC in CAMHB; assay type: cell-based; details: Pseudomonas aeruginosa; read-out: MIC P. aeruginosa ΔmexAB-oprM
[10] = tested on: N. gonorrhoeae ATCC 49226; assay: Liquid broth MIC in Fastidious broth; details: Neisseria gonorrhoeae, ATCC49226, read-out: Minimum Inhibitory Concentration (MIC), N. gonorrhoeae ATCC 49226
[11] = tested on: N. gonorrhoeae FA1090; assay: Liquid broth MIC in Fastidious broth; details: Neisseria gonorrhoeae, FA1090, read-out: Minimum Inhibitory Concentration (MIC), N. gonorrhoeae FA 1090
[12] = tested on: N. gonorrhoeae WHO L; assay: Liquid broth MIC in Fastidious broth; details: Neisseria gonorrhoeae, read-out: Minimum Inhibitory Concentration (MIC), N. gonorrhoeae WHO L
[13] = tested on: N. gonorrhoeae WHO M; assay: Liquid broth MIC in Fastidious broth; details: Neisseria gonorrhoeae, read-out: Minimum Inhibitory Concentration (MIC), N. gonorrhoeae WHO M
[14] = tested on: N. gonorrhoeae WHO X; assay: Liquid broth MIC in Fastidious broth; details: Neisseria gonorrhoeae, read-out: Minimum Inhibitory Concentration (MIC), N. gonorrhoeae WHO X
[15] = tested on: N. gonorrhoeae WHO Z; assay: Liquid broth MIC in Fastidious broth; details: Neisseria gonorrhoeae, read-out: Minimum Inhibitory Concentration (MIC), N. gonorrhoeae WHO Z
[16] = tested on: N. gonorrhoeae WHO Q; assay: Liquid broth MIC in Fastidious broth; details: Neisseria gonorrhoeae, read-out: Minimum Inhibitory Concentration (MIC), N. gonorrhoeae WHO Q

T1 sequence (G3XD46 whole entry): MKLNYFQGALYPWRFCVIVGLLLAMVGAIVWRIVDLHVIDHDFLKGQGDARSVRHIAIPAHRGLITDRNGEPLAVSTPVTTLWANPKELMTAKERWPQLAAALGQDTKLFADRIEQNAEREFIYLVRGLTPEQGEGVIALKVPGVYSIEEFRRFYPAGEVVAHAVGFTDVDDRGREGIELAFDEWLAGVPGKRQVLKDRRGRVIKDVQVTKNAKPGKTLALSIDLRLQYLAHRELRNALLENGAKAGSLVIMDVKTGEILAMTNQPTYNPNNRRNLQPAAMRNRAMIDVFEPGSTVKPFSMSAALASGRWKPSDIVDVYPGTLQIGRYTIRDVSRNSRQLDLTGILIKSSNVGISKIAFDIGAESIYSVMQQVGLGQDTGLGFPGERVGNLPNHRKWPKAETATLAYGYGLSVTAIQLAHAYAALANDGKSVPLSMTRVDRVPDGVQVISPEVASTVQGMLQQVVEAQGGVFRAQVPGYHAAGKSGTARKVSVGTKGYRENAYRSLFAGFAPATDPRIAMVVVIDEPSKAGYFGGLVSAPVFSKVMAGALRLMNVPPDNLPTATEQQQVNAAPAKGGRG

Row | SMILES | pIC50 [1] | MIC [2] [µg/mL] | MIC [3] [µg/mL] | MIC [4] [µg/mL] | MIC [5] [µg/mL] | MIC [6] [µg/mL] | MIC [7] [µg/mL] | MIC [8] [µg/mL] | MIC [9] [µg/mL] | MIC [10] [µg/mL] | MIC [11] [µg/mL] | MIC [12] [µg/mL] | MIC [13] [µg/mL] | MIC [14] [µg/mL] | MIC [15] [µg/mL] | MIC [16] [µg/mL]
1 | CN1CCN(C(=O)NC(C(=O)N[C@H]2Cc3cccc(C(=O)O)c3OB2O)c2ccc(P(=O)(O)O)cc2)C1=O (stereo partly drawn) [Example 41, (3R)-2-hydroxy-3-(2-(3-methyl-2-oxoimidazolidine-1-carboxamido)-2-(4-phosphonophenyl)acetamido)-3,4-dihydro-2H-benzo[e][1,2]oxaborinine-8-carboxylic acid] | > 5.00 | 32 to 64 (≈ 58.6 to 117 µM) | < 1 | 8 to 16 (≈ 14.6 to 29.3 µM) | > 128 | > 128 | 32 to 64 (≈ 58.6 to 117 µM) | < 1 | 8 to 16 (≈ 14.6 to 29.3 µM) | < 1 | < 1 | 1 to 2 (≈ 1.83 to 3.66 µM) | < 1 | 1 to 2 (≈ 1.83 to 3.66 µM) | < 1 | < 1
2 | CCN1CCN(C(=O)NC(C(=O)N[C@H]2Cc3cccc(C(=O)O)c3OB2O)c2ccc(P(=O)(O)O)cc2)C1=O (stereo partly drawn) [Example 42, (3R)-3-(2-(3-ethyl-2-oxoimidazolidine-1-carboxamido)-2-(4-phosphonophenyl)acetamido)-2-hydroxy-3,4-dihydro-2H-benzo[e][1,2]oxaborinine-8-carboxylic acid] | > 5.00 | 32 to 64 (≈ 57.1 to 114 µM) | < 1 | 8 to 16 (≈ 14.3 to 28.6 µM) | > 128 | > 128 | 32 to 64 (≈ 57.1 to 114 µM) | < 1 | 8 to 16 (≈ 14.3 to 28.6 µM) | < 1 | < 1 | 1 to 2 (≈ 1.78 to 3.57 µM) | < 1 | 1 to 2 (≈ 1.78 to 3.57 µM) | < 1 | < 1
3 | CS(=O)(=O)N1CCC[C@H]1C(=O)N[C@H](C(=O)N[C@H]1Cc2cccc(C(=O)O)c2OB1O)c1ccc(P(=O)(O)O)cc1 [Example 43, (R)-2-hydroxy-3-((S)-2-((S)-1-(methylsulfonyl)pyrrolidine-2-carboxamido)-2-(4-phosphonophenyl)acetamido)-3,4-dihydro-2H-benzo[e][1,2]oxaborinine-8-carboxylic acid] | 3.60 to 4.30 | > 128 | 8 to 16 (≈ 13.4 to 26.9 µM) | > 128 | > 128 | > 128 | > 128 | 8 to 16 (≈ 13.4 to 26.9 µM) | > 128 | 4 to 8 (≈ 6.72 to 13.4 µM) | 1 to 2 (≈ 1.68 to 3.36 µM) | 16 to 32 (≈ 26.9 to 53.8 µM) | 1 to 2 (≈ 1.68 to 3.36 µM) | 16 to 32 (≈ 26.9 to 53.8 µM) | 4 to 8 (≈ 6.72 to 13.4 µM) | 4 to 8 (≈ 6.72 to 13.4 µM)
4 | CS(=O)(=O)N1CCC[C@H]1C(=O)N[C@@H](C(=O)N[C@H]1Cc2cccc(C(=O)O)c2OB1O)c1ccc(P(=O)(O)O)cc1 [Example 44, (R)-2-hydroxy-3-((R)-2-((S)-1-(methylsulfonyl)pyrrolidine-2-carboxamido)-2-(4-phosphonophenyl)acetamido)-3,4-dihydro-2H-benzo[e][1,2]oxaborinine-8-carboxylic acid] | > 5.00 | > 128 | 2 to 4 (≈ 3.36 to 6.72 µM) | 32 to 64 (≈ 53.8 to 108 µM) | > 128 | > 128 | > 128 | 2 to 4 (≈ 3.36 to 6.72 µM) | 32 to 64 (≈ 53.8 to 108 µM) | 1 to 2 (≈ 1.68 to 3.36 µM) | < 1 | 16 to 32 (≈ 26.9 to 53.8 µM) | < 1 | 16 to 32 (≈ 26.9 to 53.8 µM) | 1 to 2 (≈ 1.68 to 3.36 µM) | 1 to 2 (≈ 1.68 to 3.36 µM)
